In patent US7521451B2, “Isoindoline derivative” (Maruishi Pharmaceutical Co., Ltd., priority 2002, dated 2009):
Counter-ions that a name gives are not always drawn.

Legend:
[1] = tested on: mice; details: comparison anesthetics, disclosed in Japanese Patent Application Laid Open No. 50-154410; cited from earlier work
[2] = tested on: mice; details: comparison anesthetics, disclosed in Japanese Patent Application Laid Open No. 50-154410, cited from earlier work; for T. I.(mouse): LD50/HD50

Structure (SMILES)	melting point	HD50 [1]	T. I.(mouse) [2]	LD50 [2]
CCOC(=O)CC1c2cc(C)c(C)cc2C(=S)N1c1cccnc1 (centres unmarked)	158 to 158.5 °C	–	–	–
Cc1cc2c(cc1C)C(C(=O)O)N(c1cccc(F)c1)C2=O (centres unmarked) (as salt: hydrochloride)	152 to 157.5 °C	–	–	–
Cc1cc2c(cc1C)C(OCC(=O)O)N(c1cccc(F)c1)C2=O (centres unmarked) (as salt: hydrochloride)	145 to 146 °C	–	–	–
Cc1cc2c(cc1C)C(OCC(=O)N1CCN(C)CC1)N(c1cccc(F)c1)C2=O (centres unmarked) (as salt: hydrochloride)	138 to 144.5 °C	–	–	–
CCCOC(=O)CC1c2cc(C)c(C)cc2C(=O)N1c1cccnc1 (centres unmarked) (as salt: hydrochloride)	201.5 to 208.5 °C	–	–	–
CC(C)c1cccc(C(C)C)c1O [Propofol, 2,6-diisopropylphenol]	–	13.5 mg/kg	4.14	56 mg/kg
CCCC(C)C1(CC)C(=O)NC(=S)NC1=O (centres unmarked) [Thiopental Sodium, thiopental sodium]	–	23.5 mg/kg	4.26	100 mg/kg
